Molecular target: T1, human IGF-IR (Homo sapiens, UniProt P08069)
T1 construct: complete human IGF-IR cDNA: GenBank Acc; No. NM_000875; expressed in transfected cells; host or cells: NIH-3T3 mouse fibroblasts
Assay: cellular Capture ELISA: IGF-I induced autophosphorylation of IGF-IR in NIH-3T3 cells transfected with human IGF-IR
Type: cell-based
Conditions: by the methods described above
Procedure: In this assay the activity of the compounds of the invention against Insulin-like growth factor I (IGF-1) induced autophosphorylation of the IGF-IR is determined. The assay is conducted as follows: For the assay NIH-3T3 mouse fibroblasts transfected with human IGF-IR cDNA (complete human IGF-IR cDNA: GenBank Acc. No. NM_000875), prepared as described in Kato et al., J. Biol. Chem. 268, 2655-61, 1993, are used. The cells which overexpress human IGF-IR are cultured in Dulbecco's minimal essential (DMEM) medium, containing 10% Fetal Calf Serum (FCS). For the assay 5,000 cells/well are plated on day 1 on 96-well plates (Costar #3595) in normal growth medium and incubated for 2 days at 37° C. in a standard CO2 cell incubator. […] On day 3 the medium is discarded and the cells are incubated for 24 h in minimal medium (DMEM, containing 0.5% FCS). […]
90 μl/well AP substrate (CDP-Star; obtained from Tropix; Cat. No.: MS100RY) are then added and the plates are incubated for 45 min at RT in the dark, followed by measuring AP activity in a Packard Top Count Microplate Scintillation Counter. The IC50 values for the compounds of formula I are calculated via linear regression analysis using the GraphPad Instat program (GraphPad Software, USA). […]

T1 sequence (P08069 31-1367): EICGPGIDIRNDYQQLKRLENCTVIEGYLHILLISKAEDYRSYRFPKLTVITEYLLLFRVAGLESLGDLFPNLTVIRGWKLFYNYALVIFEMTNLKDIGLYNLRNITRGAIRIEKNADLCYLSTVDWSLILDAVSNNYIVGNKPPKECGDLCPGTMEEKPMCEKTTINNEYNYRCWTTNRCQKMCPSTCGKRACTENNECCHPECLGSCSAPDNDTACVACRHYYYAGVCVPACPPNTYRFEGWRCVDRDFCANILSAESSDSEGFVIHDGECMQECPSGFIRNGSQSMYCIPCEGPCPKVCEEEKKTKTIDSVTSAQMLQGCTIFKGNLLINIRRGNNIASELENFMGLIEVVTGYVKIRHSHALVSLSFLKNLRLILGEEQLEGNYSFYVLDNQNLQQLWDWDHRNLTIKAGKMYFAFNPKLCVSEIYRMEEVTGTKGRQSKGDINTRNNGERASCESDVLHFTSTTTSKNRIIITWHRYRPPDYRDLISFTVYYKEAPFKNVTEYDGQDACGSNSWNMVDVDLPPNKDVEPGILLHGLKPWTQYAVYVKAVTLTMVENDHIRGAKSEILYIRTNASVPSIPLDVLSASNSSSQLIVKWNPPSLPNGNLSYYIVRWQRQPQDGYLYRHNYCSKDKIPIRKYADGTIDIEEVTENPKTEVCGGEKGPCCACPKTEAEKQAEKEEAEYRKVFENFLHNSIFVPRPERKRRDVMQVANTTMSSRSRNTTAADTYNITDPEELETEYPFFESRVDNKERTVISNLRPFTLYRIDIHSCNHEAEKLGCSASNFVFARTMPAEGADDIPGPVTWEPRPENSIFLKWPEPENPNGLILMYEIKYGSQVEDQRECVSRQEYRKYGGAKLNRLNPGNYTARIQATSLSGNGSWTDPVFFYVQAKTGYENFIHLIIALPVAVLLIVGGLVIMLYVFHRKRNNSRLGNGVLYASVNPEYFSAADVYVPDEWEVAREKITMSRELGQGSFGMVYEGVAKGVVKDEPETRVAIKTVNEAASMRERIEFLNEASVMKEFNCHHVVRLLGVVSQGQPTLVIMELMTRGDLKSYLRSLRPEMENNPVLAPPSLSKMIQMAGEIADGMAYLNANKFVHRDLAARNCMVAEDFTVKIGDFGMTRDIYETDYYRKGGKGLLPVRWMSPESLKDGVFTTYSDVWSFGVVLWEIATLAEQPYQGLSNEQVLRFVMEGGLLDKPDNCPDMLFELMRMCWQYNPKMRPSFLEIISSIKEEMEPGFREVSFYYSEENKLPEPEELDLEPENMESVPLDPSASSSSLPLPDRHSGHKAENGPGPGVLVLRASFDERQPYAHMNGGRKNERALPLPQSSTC

Question: For `CN(C)CCOc1ccc(Nc2nccc(-c3c[nH]nc3-c3ccc(OCc4ccccc4)cc3)n2)cc1` [Example 6, {4-[3-(4-Benzyloxy-phenyl)-1H-pyrazol-4-yl]-pyrimidin-2-yl}-[4-(2-dimethylamino-ethoxy)-phenyl]-amine], which “inhibition of IGF-1R (in words)” value is on record?
Answer: Its value is “shows inhibition”.
